Series [1] can be described thus: Solid stability test of amorphous form (HPLC content and total impurity). Format: physicochemical. The protocol:
1.5 High Performance Liquid Chromatograph (HPLC) • Instrument model: Agilent 1200 high performance liquid chromatograph • The analysis method is as follows:
Stability of amorphous form sample under conditions of high temperature, high humidity (40° C./RH 75.0%, closed) and acceleration.
About 1.4 g of sample was put into a double-layer LDPE bag, each layer of LDPE bag was fastened and sealed respectively, then the LDPE bag and a medicinal desiccant were put into an aluminum-foil bag and sealed by heating, under conditions of high temperature and high humidity, a sample was taken on the 30th day for detection, and a detection result was compared with an initial detection result on the 0th day.

A short description of series [2]: Equilibrium solubility of amorphous form sample in different pH media. Type of series: physicochemical. Particulars: for solubility at 24 h: thermodynamic from solid. The protocol:
An equilibrium solubility of an amorphous form sample in pH 1.0/2.0 (hydrochloric acid solution), pH 3.8/4.5/5.5 (acetate buffer solution), pH 6.0/6.8/7.4 (phosphate buffer solution) and water was detected (prepared according to the Technical Guiding Principles for Dissolution Rate Test of Ordinary Oral Solid Preparations of Chinese Pharmacopoeia).
5 mL of different media (pH 1.0, pH 2.0, pH 3.8, pH 4.5, pH 5.5, pH 6.0, pH 6.8 and pH 7.4 buffer solutions and pure water) were respectively added into nine 8 mL glass bottles, and an appropriate amount of amorphous form sample was added respectively to make the mixture a suspension. Magnetic stirring bars were added into the sample above, which are placed on a magnetic stirrer to stir (at a temperature of 37° C.).
The sample was centrifuged after 24 h, and a supernatant was taken from an upper sample to determine a concentration thereof by HPLC and a pH value thereof (results shown in Table 4).

Series [3] is described as follows: Hygroscopicity test of amorphous form sample. Type of series: physicochemical. The note with it: 25° C., 24 h. The protocol:
A hygroscopicity of an amorphous form sample was detected. (The hygroscopicity of the compound was determined according to the method in the General Rules of the Chinese Pharmacopoeia (2015 Version) Volume IV).
Three dry glass weighing bottles with stoppers were weighed, the results of which were recorded as m1 1, m1 2 and m1 3. An appropriate amount of crude drug sample was spread in the weighed weighing bottles (the sample has a thickness of about 1 mm), then accurately weighed and recorded as m2 1, m2 2 and m2 3. The weighing bottles were open and placed together with bottle caps in a dryer with saturated ammonium chloride solution at a lower part, the dryer was covered, then the dryer was placed in a thermostat at 25° C. for 24 h. After being placed for 24 h, the weighing bottles were covered, then taken out for accurate weighing, the results of which were recorded as m3 1, m3 2 and m3 3. Weight increase by hygroscopicity was calculated, and the calculation formula was as follows: weight increase percentage=100%×(m3−m2)/(m2−m1).

Series [4] in a line: Solid stability test of crystal form (XRPD). Type of series: physicochemical. The procedure:
According to the Guiding Principles for Stability Experiment of Crude Drugs and Preparations (General Rules 9001 of Chinese Pharmacopoeia (2015 Version) Volume IV), a stability of a compound placed under conditions of high temperature (60° C., open), high humidity (RT/92.5% RH, open) and illumination (50001×, closed) for 5 days and 10 days were investigated.
An appropriate amount of a crystal form sample of a compound represented by formula (I) was placed at a bottom of a glass sample bottle and spread into a thin layer. The sample placed under the conditions of high temperature and high humidity was sealed with aluminum-foil paper, and small holes were punched in the aluminum-foil paper to ensure that the sample could be fully contacted with ambient air. The sample placed under the condition of illumination (50001×) was sealed with a bottle cap and further sealed with a sealing film, the sample was sealed and placed at a room temperature, and XRPD detection was performed on the 5th day and the 10th day.

Series [5] is described as follows: Pharmacokinetic study, intramuscular injection in mouse. Type of series: in vivo, SD mouse. The note with it: sesame oil suspension. The procedure:
Through the experiment of drug metabolism in a mouse, the metabolism of the compound in the mouse is evaluated by taking Cmax, t1/2, AUC, MRT and B/P ratio in vivo as indexes.
A test compound was mixed with an appropriate amount of sesame oil, and the mixture was vortexed and ultrasonically processed to obtain an even suspension of 25 μmol/mL. A SD mouse aged 6 weeks to 9 weeks (Shanghai SLAC Laboratory Animal Co., Ltd) was selected and intramuscularly injected with a suspension of the test compound at a dose of 20 μmol/kg or 40 μmol/kg. Whole blood of a certain period of time was collected, and a precipitant (acetonitrile, methanol and internal standard for analysis) was added and centrifuged. A supernatant solution was analyzed for a drug concentration by a LC-MS/MS method (if the test drug was the prodrug, concentrations of the prodrug and the hydrolyzed parent drug were analyzed simultaneously), and pharmacokinetic parameters were calculated by Phoenix WinNonlin software (Pharsight Company of the United States).

Where [6] appears, read: High temperature and high humidity (40° C./RH 75.0%, close), 30 days.

Values after ≈ are worked out from the molar mass of the structure shown. Values joined by “and” are separate entries in the source; they are usually repeats but may differ in a detail not shown here. Equal entries are not always repeated. “Also recorded” adds a separate entry of the source.

The term solubility denotes the dissolved amount per volume that the medium holds. A higher solubility goes with much dissolved substance.

Regarding `C[C@@]12CCCCC[C@@H](Cc3c(F)cc(OC(=O)CCCCCCCCC(=O)Oc4cc(F)c5c(c4)[C@@]4(C)CCCCC[C@@H](C5)[C@@H]4N)cc31)[C@@H]2N` [listing 1 of 2 here], the Content was found to be 99.3% in series [1] (0 day) and 97.8% in series [1] (setting [6]). In addition, the Total impurity worked out at 1.56% in series [1] (0 day) and 1.96% in series [1] (setting [6]). In addition, the “Solid stability of amorphous form (conclusion in words)” value in series [1] (high temperature, high humidity and sealing, 30 days) is listed as “relatively stable”. Also, the solubility at 24 h in series [2] (0.01 N HCl, simulated gastric fluid, 0.01 NHCl, final pH 2.01, 37° C., 24 h) is 1630 µg/mL (≈ 2.35 mM); in series [2] (0.1 N HCl, simulated gastric fluid, 0.1 NHCl, final pH 1.02, 37° C., 24 h) it was 398 µg/mL (≈ 0.574 mM); in series [2] (aqueous buffer, pH 3.8 buffer solution (acetate), final pH 3.68, 37° C., 24 h), 15100 µg/mL (≈ 21.8 mM); in series [2] (aqueous buffer, pH 4.5 buffer solution (acetate), final pH 4.48, 37° C., 24 h), 19600 µg/mL (≈ 28.3 mM); in series [2] (aqueous buffer, pH 5.5 buffer solution (acetate), final pH 5.25, 37° C., 24 h), 18700 µg/mL (≈ 27 mM); in series [2] (aqueous buffer, pH 6.0 buffer solution (phosphate), final pH 5.89, 37° C., 24 h), 13 µg/mL (≈ 0.0188 mM). Moreover, the solubility at 24 h in series [2] (aqueous buffer, pH 6.8 buffer solution (phosphate), final pH 6.75, 37° C., 24 h) was 3 µg/mL (≈ 0.00433 mM); in series [2] (pure water, Water, final pH 4.28, 37° C., 24 h) it was 13500 µg/mL (≈ 19.5 mM). Further, the “Solubility (in words)” value is given as “easily soluble” in series [2] (hydrochloric acid solution, acetate buffer solution and water); “slightly soluble or insoluble” in series [2] (phosphate buffer solution). In addition, in series [2] (pH 7.4 buffer solution (phosphate), final pH 7.20, 37° C., 24 h, LOQ = 0.0003 mg/mL), the Solubility entry is reported as “<LOQ”. In addition, the “Hygroscopicity (in words)” value in series [3] was “had hygroscopicity”. For the same compound, the “Weight increase percentage, average value” in series [3] (average of three samples, over saturated ammonium chloride solution) is 5.24%. Besides, the Weight increase percentage in series [3] (single samples 1-3, over saturated ammonium chloride solution) was 5.790% and 5.215% and 4.714%.

On to `C[C@@]12CCCCC[C@@H](Cc3c(F)cc(OC(=O)CCCCCCCCC(=O)Oc4cc(F)c5c(c4)[C@@]4(C)CCCCC[C@@H](C5)[C@@H]4N)cc31)[C@@H]2N` [listing 2 of 2 here], for which the “Crystal form (MOD)” value in series [4] (0 day, initial) is “Crystal form of compound represented”; in series [4] (High humidity (RT/RH 92.5%, open), 5 days), “Crystal form of compound represented”; in series [4] (High humidity (RT/RH 92.5%, open), 10 days), “Crystal form of compound represented”; in series [4] (High temperature (60° C., open), 5 days), “Crystal form of compound represented”; in series [4] (High temperature (60° C., open), 10 days), “Crystal form of compound represented”; in series [4] (Illumination (5000lx, closed), 5 days) it was “Crystal form of compound represented”. For the same compound, the “Crystal form (MOD)” value in series [4] (Illumination (5000lx, closed), 10 days) was “Crystal form of compound represented”. Also, the “Solid stability of crystal form (conclusion in words)” value in series [4] (high temperature, high humidity and illumination, 5 and 10 days vs 0 day) was “did not change; also recorded: stable under the conditions of high temperature, high humidity and illumination without any change”.

On to `C[C@@]12CCCCC[C@@H](Cc3c(F)cc(OC(=O)CCCCCCCCC(=O)Oc4cc(F)c5c(c4)[C@@]4(C)CCCCC[C@@H](C5)[C@@H]4N)cc31)[C@@H]2N` [Compound B], for which the “Release and hydrolysis in vivo (in words)” value in series [5] was “slowly released in vivo after intramuscular injection and quickly hydrolyzed into the parent drug compound A”.

The values above are taken from patent US11339119B2, “Crystal form and amorphous form of dezocine analogue hydrochloride” (Shandong Danhong Pharmaceutical Co., Ltd., priority 2017, dated 2022).
